# Measured values from patent US5097013A, “Novel peptides possessing a macrophage chemotactic activity” (Kao Corporation, priority 1988, dated 1992).
# Square brackets hold non-standard residues; d marks the D form. Peptide text beside a SMILES is read from it. * marks the point of attachment. Fmoc = O=C(OCC1c2ccccc2-c2ccccc21)*; dNle = CCCC[C@@H](N)C(=O)O
# Tested on: macrophage (peritoneal exudate cells)
# Assay: Macrophage chemotactic activity, 48 well chemotaxis chamber
# Format: cell-based, guinea pig
# Details: Table 2; test described in Example 64; relative scale, Compound No. 1 = 100
# Protocol: Macrophage chemotactic activity in the examples was determined as follows.
# Peritoneal exudate cells (usually more than 95% were macrophage) collected from guinea pig in which liquid paraffin had previously been peritoneally injected 3 or 4 days before were used as macrophage in a cell concentration of 2×10^6 /ml.
# A sample which activity was to be determined was charged in lower wells of a 48 well chemotaxis chamber and a polycarbonate membrane having a pore size of 5 μm was put thereon, and the macrophage suspension was charged in upper wells followed by incubation at 37° C. for 90 minutes in a CO2 incubator. After the incubation, adherent cells on the non-chemotactic surface was removed, fixed and subjected to Giemsa staining and then to inclusion treatment. Then, the cells on the chemotactic surface were microscopically (×400) counted and the cell count was made MCF activity.
# The peptide synthesized in Example 5 was dissolved in 5 mM MgCl2 and the solution was suitably diluted with 0.5% FCS-containing Hanks' medium.
row,Molecule,Activity (macrophage chemotactic activity)
1,"CC(C)C[C@H](NC(=O)[C@@H](Cc1c[nH]c2ccccc12)NC(=O)OCC1c2ccccc2-c2ccccc21)C(=O)NCC(=O)N[C@@H](CCCNC(=N)N)C(=O)N[C@@H](CCC(=O)O)C(=O)N[C@@H](CC(=O)O)C(=O)O [Compound 30, Fmoc-D-Trp-L-Leu-Gly-L-Arg-L-Glu-L-Asp-OH] (Fmoc-[dW]LGRED-OH)",< 10
2,H-WAGRED-OH [Compound 42],< 10
3,H-MWLGRED-OH [Compound 47],< 10
4,H-W[dNle]GREDGSE-OH [Compound 15],< 10
5,H-WLG[dR]EDGSE-OH [Compound 14],80
6,"H-WLGRQNGSQ-NH2 [Compound 11, H-L-Trp-L-Leu-Gly-L-Arg-L-Gln-L-Asn-Gly-L-Ser-L-Gln-NH2]",< 10
7,H-WPREDGSE-OH [Compound 10],< 10
8,H-WAGREDGSE-OH [Compound 9],< 10
9,"CC(C)C[C@H](NC(=O)[C@H](Cc1c[nH]c2ccccc12)NC(=O)OCC1c2ccccc2-c2ccccc21)C(=O)NCC(=O)N[C@@H](CCCNC(=N)N)C(=O)N[C@@H](CCC(=O)O)C(=O)N[C@H](CC(=O)O)C(=O)O [Compound 39, Fmoc-L-Trp-L-Leu-Gly-L-Arg-L-Glu-D-Asp-OH] (Fmoc-WLGRE[dD]-OH)",10
10,"CC(C)C[C@H](NC(=O)[C@@H](N)Cc1c[nH]c2ccccc12)C(=O)NCC(=O)N[C@@H](CCCNC(=N)N)C(=O)O [Compound 27, H-L-Trp-L-Leu-Gly-L-Arg-OH] (H-WLGR-OH)",< 10
11,H-WLGRENGSE-OH [Compound 5],< 10
12,H-L-Trp-L-AIa-Gly-L-Arg-L-Glu-L-Asp-Gly-L-Ser-L-Glu-NH2 [Compound 44],< 10
13,H-L-Glu-L-Asp-Gly-L-Ser-L-Glu-OH [Compound 25],< 10
14,H-WLGREDG[dS]E-OH [Compound 36],< 10
15,"CC(C)C[C@H](NC(=O)[C@H](Cc1c[nH]c2ccccc12)NC(=O)OCC1c2ccccc2-c2ccccc21)C(=O)NCC(=O)N[C@@H](CCCNC(=N)N)C(=O)N[C@H](CCC(=O)O)C(=O)N[C@@H](CC(=O)O)C(=O)O [Compound 34, Fmoc-L-Trp-L-Leu-Gly-L-Arg-D-Glu-L-Asp-OH] (Fmoc-WLGR[dE]D-OH)",< 10
16,H-WLGR[dE]DGSE-OH [Compound 41],< 10
17,H-WLGREDGSE-NH2 [Compound 12],< 10
18,H-WLGRED-OH [Compound 23],10
19,H-WLGKEDGSE-OH [Compound 8],< 10
20,"H-WLGREDGSE-OH [Compound 1, H-L-Trp-L-Leu-Gly-L-Arg-L-Glu-L-Asp-Gly-L-Ser-L-Glu-OH]",100
21,H-WLGREEGS-OH [Compound 38],< 10
22,H-KWLGREDGSE-OH [Compound 3],80
23,H-WLGRQDGSE-OH [Compound 2],80

row,Molecule,Activity (macrophage chemotactic activity)
1,H-WLGREDGAE-OH [Compound 20],< 10
2,H-WVREDGSE-OH [Compound 50],< 10
3,H-WGGREDGSE-OH [Compound 52],< 10
4,H-WLGYEDGSE-OH [Compound 18],50
5,"H-WLGRGDGSE-OH [Compound 48, H-L-Trp-L-Leu-Gly-L-Arg-Gly-L-Asp-Gly-L-Ser-L-Glu-OH]",< 10
6,H-LGREDGSE-OH [Compound 51],< 10
7,H-WLGREDGS-OH [Compound 21],10
8,H-WLGREDGSD-OH [Compound 4],10
9,H-WLGREDGSQ-OH [Compound 28],< 10
10,H-[dW]LGREDGSE-OH [Compound 16],< 10
11,"CC(C)C[C@@H](NC(=O)[C@H](Cc1c[nH]c2ccccc12)NC(=O)OCC1c2ccccc2-c2ccccc21)C(=O)NCC(=O)N[C@@H](CCCNC(=N)N)C(=O)N[C@@H](CCC(=O)O)C(=O)N[C@@H](CC(=O)O)C(=O)O [Compound 32, Fmoc-L-Trp-D-Leu-Gly-L-Arg-L-Glu-L-Asp-OH] (Fmoc-W[dL]GRED-OH)",< 10
12,"CC(C)C[C@H](NC(=O)[C@H](Cc1c[nH]c2ccccc12)NC(=O)OCC1c2ccccc2-c2ccccc21)C(=O)NCC(=O)N[C@@H](CCCNC(=N)N)C(=O)N[C@@H](CCC(=O)O)C(=O)N[C@@H](CC(=O)O)C(=O)O [Compound 29, Fmoc-L-Trp-L-Leu-Gly-L-Arg-L-Glu-L-Asp-OH] (Fmoc-WLGRED-OH)",< 10
13,H-WLGRED-NH2 [Compound 26],10
14,H-FLGREDGSE-OH [Compound 7],< 10
15,H-L-Trp-L-Leu-Gly-L-Arg-L-Glu-OH [Compound 24],< 10
16,"CC(C)C[C@H](NC(=O)[C@H](Cc1c[nH]c2ccccc12)NC(=O)OCC1c2ccccc2-c2ccccc21)C(=O)NCC(=O)N[C@@H](CCCNC(=N)N)C(=O)N[C@@H](CCC(=O)O)C(=O)N[C@@H](CC(=O)O)C(=O)NCC(=O)N[C@@H](CO)C(=O)N[C@@H](CCC(=O)O)C(=O)O [Compound 13, Fmoc-L-Trp-L-Leu-Gly-L-Arg-L-Glu-L-Asp-Gly-L-Ser-L-Glu-OH] (Fmoc-WLGREDGSE-OH)",< 10
17,H-WIIREDGSE-OH [Compound 43],< 10
18,H-WLGLEDGSE-OH [Compound 49],10
19,H-W[dL]GREDGSE-OH [Compound 37],< 10
20,H-WLGREDGCE-OH [Compound 17],< 10
21,H-WLGREDG-OH [Compound 22],< 10
22,H-WLIREDGSE-OH [Compound 6],< 10
23,H-WLGREDGLL-NH2 [Compound 46],< 10

# Same assay, conditions: dissolved in 5 mM MgCl2, diluted with 0.5% FCS-containing Hanks' medium
row,Molecule,macrophage chemotactic activity (in words)
1,"H-WLGREDGSE-OH [Compound 1, H-L-Trp-L-Leu-Gly-L-Arg-L-Glu-L-Asp-Gly-L-Ser-L-Glu-OH]",high activities

# Same assay, conditions: relative activity, Table 1 (culture supernatant of hybridoma MCF-A51 = 100.0, medium alone 10.0); 3 × 10^-8 M; dissolved in 5 mM MgCl2, diluted with 0.5% FCS-containing Hanks' medium
row,Molecule,Macrophage Chemotactic Activity
1,"H-WLGREDGSE-OH [Compound 1, H-L-Trp-L-Leu-Gly-L-Arg-L-Glu-L-Asp-Gly-L-Ser-L-Glu-OH]",41.4
